According to PubChem BioAssay AID330 (DTP/NCI, 2004):
Values joined by “and” are separate entries in the source; they are usually repeats but may differ in a detail not shown here. Equal entries are not always repeated. Toxic doses and inconclusive results are not listed. The calls were made as follows: active = survival T/C of 150% or more; inactive = T/C below 125% in these data. Bridge positions count the residues as written; N and C are the ends. Peptide text beside a SMILES is read from it. I, II: the chains in the order shown.

Test system: P388 leukemia ip, CD2F1 mice, survival T/C
Test: NCI In Vivo Anticancer Drug Screen. Data for tumor model P388 Leukemia (intraperitoneal) in CD2F1 (CDF1) mice
Settings: endpoint: median survival time, higher = longer survival
In short: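 Mice carrying the transplanted tumor received test compound or vehicle. Survival was recorded in each group, and the value is the treated-group measurement divided by that of the vehicle-treated control group.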

[1] = dose: 12.5 mg/kg/injection, schedule: Q01DX009 (ip), vehicle: saline
[2] = dose: 50.0 mg/kg/injection, schedule: Q01DX009 (ip), vehicle: saline with Tween-80
[3] = dose: 100.0 mg/kg/injection, schedule: Q01DX009 (ip), vehicle: saline with Tween-80
[4] = dose: 200.0 mg/kg/injection, schedule: Q01DX009 (ip), vehicle: saline with Tween-80
[5] = dose: 60.0 mg/kg/injection, schedule: Q01DX005 (ip), vehicle: saline with Tween-80
[6] = dose: 120.0 mg/kg/injection, schedule: Q01DX005 (ip), vehicle: saline with Tween-80
[7] = dose: 240.0 mg/kg/injection, schedule: Q01DX005 (ip), vehicle: saline with Tween-80
[8] = dose: 50.0 mg/kg/injection, schedule: Q01DX005 (ip), vehicle: Klucel (hydroxypropylcellulose) (HPC)
[9] = dose: 100.0 mg/kg/injection, schedule: Q01DX005 (ip), vehicle: Klucel (hydroxypropylcellulose) (HPC)
[10] = dose: 200.0 mg/kg/injection, schedule: Q01DX005 (ip), vehicle: Klucel (hydroxypropylcellulose) (HPC)
[11] = dose: 100.0 mg/kg/injection, schedule: Q01DX001 (ip), vehicle: saline with Tween-80
[12] = dose: 200.0 mg/kg/injection, schedule: Q01DX001 (ip), vehicle: saline with Tween-80
[13] = dose: 400.0 mg/kg/injection, schedule: Q01DX001 (ip), vehicle: saline with Tween-80
[14] = dose: 50.0 mg/kg/injection, schedule: Q01DX009 (ip), vehicle: saline
[15] = dose: 100.0 mg/kg/injection, schedule: Q01DX009 (ip), vehicle: saline
[16] = dose: 200.0 mg/kg/injection, schedule: Q01DX009 (ip), vehicle: saline

Measured: T/C

CSC(=S)N/N=C\C(C)=N/N=C(N)N
inactive: dose: 3.12 mg/kg/injection, schedule: Q01DX009 (ip), vehicle: saline 101 % of control | dose: 6.25 mg/kg/injection, schedule: Q01DX009 (ip), vehicle: saline 101 % of control | [1] 107 % of control

CCCCn1c(=O)cc(C(=O)O)[nH]c1=O
inactive: [2] 104 % of control | [3] 100 % of control | [4] 94 % of control

COc1ccc(CS(=O)(=O)c2cnc(N3CCN(C)CC3)nc2N)cc1OC
inactive: dose: 100.0 mg/kg/injection, schedule: Q01DX001 (ip), vehicle: saline 101 % of control | dose: 200.0 mg/kg/injection, schedule: Q01DX001 (ip), vehicle: saline 98 % of control | dose: 400.0 mg/kg/injection, schedule: Q01DX001 (ip), vehicle: saline 98 % of control

O=C(O)c1cn(O)ccc1=O
inactive: dose: 50.0 mg/kg/injection, schedule: Q01DX005 (ip), vehicle: saline with Tween-80 94 % of control | dose: 100.0 mg/kg/injection, schedule: Q01DX005 (ip), vehicle: saline with Tween-80 100 % of control | dose: 200.0 mg/kg/injection, schedule: Q01DX005 (ip), vehicle: saline with Tween-80 97 % of control

O=C(O)c1ccc(-c2c3ccc(=O)cc-3oc3cc(O)ccc23)cc1
inactive: dose: 60.0 mg/kg/injection, schedule: Q01DX005 (ip), vehicle: Klucel (hydroxypropylcellulose) (HPC) 100 % of control | dose: 120.0 mg/kg/injection, schedule: Q01DX005 (ip), vehicle: Klucel (hydroxypropylcellulose) (HPC) 97 % of control | dose: 240.0 mg/kg/injection, schedule: Q01DX005 (ip), vehicle: Klucel (hydroxypropylcellulose) (HPC) 100 % of control

CCc1cc2nc3c(=O)[nH]c(=O)nc-3n(CCN(CCO)CCO)c2cc1CC
inactive: [5] 99 % of control | [6] 116 % of control | [7] 108 % of control

Cc1c[nH]c2nc(C)n(-c3ccc(Cl)cc3)c(=N)c12
inactive: dose: 12.5 mg/kg/injection, schedule: Q01DX005 (ip), vehicle: Klucel (hydroxypropylcellulose) (HPC) 98 % of control | dose: 25.0 mg/kg/injection, schedule: Q01DX005 (ip), vehicle: Klucel (hydroxypropylcellulose) (HPC) 104 % of control | [8] 103 % of control

CSC(SC)c1cc(C)no1
inactive: [5] 107 % of control | [6] 101 % of control | [7] 103 % of control

COc1cccc2cc3c(cc12)C(=O)C(C)=C(C)C3=O
inactive: dose: 100.0 mg/kg/injection, schedule: Q04DX003 (ip), vehicle: Klucel (hydroxypropylcellulose) (HPC) 94 % of control | dose: 200.0 mg/kg/injection, schedule: Q04DX003 (ip), vehicle: Klucel (hydroxypropylcellulose) (HPC) 97 % of control | dose: 400.0 mg/kg/injection, schedule: Q04DX003 (ip), vehicle: Klucel (hydroxypropylcellulose) (HPC) 109 % of control

CN(c1ccccc1)c1nnnn1-c1ccccc1
inactive: dose: 50.0 mg/kg/injection, schedule: Q04DX003 (ip), vehicle: saline with Tween-80 95 % of control | dose: 100.0 mg/kg/injection, schedule: Q04DX003 (ip), vehicle: saline with Tween-80 104 % of control | dose: 200.0 mg/kg/injection, schedule: Q04DX003 (ip), vehicle: saline with Tween-80 111 % of control

CC(C)(C)c1nnc2cccc(Cl)n12
inactive: dose: 100.0 mg/kg/injection, schedule: Q01DX001 (ip), vehicle: Klucel (hydroxypropylcellulose) (HPC) 100 % of control | dose: 200.0 mg/kg/injection, schedule: Q01DX001 (ip), vehicle: Klucel (hydroxypropylcellulose) (HPC) 99 % of control | dose: 400.0 mg/kg/injection, schedule: Q01DX001 (ip), vehicle: Klucel (hydroxypropylcellulose) (HPC) 103 % of control

O=C(O)c1cccc2c1Cc1ccccc1-2
inactive: [8] 94 % of control | [9] 92 % of control | [10] 88 % of control

O=C1C/C(=N\O)CON1c1ccccc1
inactive: dose: 100.0 mg/kg/injection, schedule: Q01DX002 (ip), vehicle: Klucel (hydroxypropylcellulose) (HPC) 106 % of control | dose: 200.0 mg/kg/injection, schedule: Q01DX002 (ip), vehicle: Klucel (hydroxypropylcellulose) (HPC) 98 % of control | dose: 400.0 mg/kg/injection, schedule: Q01DX002 (ip), vehicle: Klucel (hydroxypropylcellulose) (HPC) 90 % of control

O=C1CSC(c2c(Cl)cccc2Cl)N1c1nncs1 (stereo not given)
inactive: [5] 111 % of control | [6] 102 % of control | [7] 98 % of control

O=C1CN(CCCN2CCOCC2)CC(=O)N2Cc3ccccc3CN12
inactive: dose: 50.0 mg/kg/injection, schedule: Q01DX005 (ip), vehicle: saline 95 % of control | dose: 100.0 mg/kg/injection, schedule: Q01DX005 (ip), vehicle: saline 110 % of control | dose: 200.0 mg/kg/injection, schedule: Q01DX005 (ip), vehicle: saline 108 % of control

Nc1nccc(CCc2ccccc2)n1
inactive: [5] 101 % of control | [6] 95 % of control

COc1cc(C(=O)NN=C2c3ccccc3-c3ccccc32)cc(OC)c1OC
inactive: [2] 93 % of control | [3] 88 % of control | [4] 87 % of control

C=CCOc1cc2c(cc1C/C=C\c1ccc(OC)cc1)OCO2
inactive: [5] 102 % of control | [6] 104 % of control | [7] 101 % of control

NC(CSSCC(N)C(=O)NC(Cc1ccccc1)C(=O)O)C(=O)NC(Cc1ccccc1)C(=O)O (stereo not drawn) (I: H-Cys-Phe-OH / II: H-Cys-Phe-OH; disulfide I:1-II:1; configuration not given here)
inactive: [8] 101 % of control | [9] 97 % of control | [10] 105 % of control

Cc1nn(-c2ccccc2)c(=O)n2c(-n3c(C)nn(-c4ccccc4)c3=O)nnc12
inactive: [11] 102 % of control | [12] 105 % of control | [13] 99 % of control

CN(c1ccccc1)S(=O)(=O)c1ccc2ccccc2c1O
inactive: [11] 101 % of control | [12] 100 % of control | [13] 91 % of control

NC(N)=O.NC(N)=O.NC(N)=O.NC(N)=O.NC(N)=O.NC(N)=O.[O-][Cl+3]([O-])([O-])O.[Ti+3]
inactive: [14] 99 % of control | [15] 92 % of control | [16] 86 % of control

Cc1cc2c(=O)[nH]c(N)nc2[nH]1
inactive: dose: 12.5 mg/kg/injection, schedule: Q01DX009 (ip), vehicle: suspension in saline 99 % of control | dose: 25.0 mg/kg/injection, schedule: Q01DX009 (ip), vehicle: suspension in saline 115 % of control | dose: 50.0 mg/kg/injection, schedule: Q01DX009 (ip), vehicle: suspension in saline 113 % of control and 116 % of control

CCN(CC)CCCCCNc1cc(Cl)c(Cl)cc1[N+](=O)[O-]
inactive: [1] 99 % of control | dose: 25.0 mg/kg/injection, schedule: Q01DX009 (ip), vehicle: saline 95 % of control | [14] 107 % of control

O=[N+]([O-])c1cnc(Sc2ncc([N+](=O)[O-])cn2)nc1
inactive: dose: 60.0 mg/kg/injection, schedule: Q01DX005 (ip), vehicle: saline 99 % of control | dose: 120.0 mg/kg/injection, schedule: Q01DX005 (ip), vehicle: saline 102 % of control | dose: 240.0 mg/kg/injection, schedule: Q01DX005 (ip), vehicle: saline 99 % of control

CC(C(=O)O)c1ccc2c(c1)Cc1ccccc1-2 (stereo not given)
inactive: dose: 12.5 mg/kg/injection, schedule: Q01DX009 (ip), vehicle: saline with Tween-80 108 % of control | dose: 25.0 mg/kg/injection, schedule: Q01DX009 (ip), vehicle: saline with Tween-80 106 % of control | [2] 105 % of control and 86 % of control

CCCCCN(CCCCC)c1ccc(/C=C/c2ccnc3ccccc23)cc1
inactive: dose: 50.0 mg/kg/injection, schedule: Q01DX009 (ip), vehicle: Klucel (hydroxypropylcellulose) (HPC) 98 % of control | dose: 400.0 mg/kg/injection, schedule: Q01DX009 (ip), vehicle: Klucel (hydroxypropylcellulose) (HPC) 104 % of control

C=CCOC(OCC=C)C(OCC=C)OCC=C
inactive: [15] 109 % of control | dose: 100.0 mg/kg/injection, schedule: Q04DX003 (ip), vehicle: saline 100 % of control | [16] 100 % of control | dose: 200.0 mg/kg/injection, schedule: Q04DX003 (ip), vehicle: saline 100 % of control | dose: 400.0 mg/kg/injection, schedule: Q01DX009 (ip), vehicle: saline 122 % of control | dose: 400.0 mg/kg/injection, schedule: Q04DX003 (ip), vehicle: saline 100 % of control
